Experiments:
Assay type in all cases: biochemical
[1] = tested on: D-asparaginase THERMUS T-351 (ATCC No. 31,674); test: Asparaginase properties: Km and inhibitors; settings: for Inhibitors: loss of activity: inhibitor concentration not stated
[2] = tested on: L-asparaginase THERMUS T-351 (ATCC No. 31,674); test: Asparaginase properties: inhibitors; settings: inhibitor concentration not stated
[3] = molecular target: T1, L-asparaginase E. COLI (B) (for comparison) (Escherichia coli, UniProt P00805); test: Asparaginase properties: Km and inhibitors (for comparison); settings: inhibitor concentration not stated
T1 sequence (P00805 23-348): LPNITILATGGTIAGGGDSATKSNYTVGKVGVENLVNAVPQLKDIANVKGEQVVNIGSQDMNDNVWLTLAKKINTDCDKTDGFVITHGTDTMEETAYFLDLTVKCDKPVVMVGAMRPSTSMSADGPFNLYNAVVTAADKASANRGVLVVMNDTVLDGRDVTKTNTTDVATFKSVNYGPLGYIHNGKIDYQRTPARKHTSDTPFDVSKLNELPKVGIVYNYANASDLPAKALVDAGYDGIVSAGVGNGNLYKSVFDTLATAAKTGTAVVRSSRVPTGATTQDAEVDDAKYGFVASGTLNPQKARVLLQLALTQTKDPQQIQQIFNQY

Row | Compound | Inhibitors: loss of activity [1] | Inhibitors: loss of activity [2] | Inhibitors: loss of activity [3] | Km ([1]; substrate not given, enzyme specific only for D-asparagine) [mM]
1 | CC(N)=O [Acetamide] | 100% | No loss of activity | No loss of activity | –
2 | NC(=O)C[C@@H](N)C(=O)O [D-asparagine] | – | – | – | 20
3 | O=C(O)c1cc[c]([Hg][Cl])cc1 [pCMB] | No loss of activity | 100% | No loss of activity | –

Source: US4473646A, “Stereospecific asparaginases” (Development Finance Corp. of New Zealand, priority 1980, dated 1984)
